Values quoted from earlier work in PMC4263154 (Journal of Clinical Pharmacology, 2013).
Entries after “also recorded” stand apart in the source; their conditions may differ. Where two headings read alike, the source gives them in different places.

Assays:
[1] = not given; remark: listed apart in the source

| Molecule | effect on body weight and energy intake (Phase 1 and 2 clinical trials) | erectogenic effect (clinical trial) | sexual arousal ([1]; females with sexual behavior disorders) | erectogenic activity ([1]; males with erectile dysfunction) | effect on food intake or energy expenditure (MC4R; MC4R knock-out mice) | effect on food intake or energy expenditure (MC4R; wild-type mice) |
| --- | --- | --- | --- | --- | --- | --- |
| CC(=O)N[C@@H](C)c1cc(Cl)ccc1C1CCN(C(=O)[C@@H]2CN(C(C)(C)C)C[C@H]2c2ccc(F)cc2F)CC1 [MK-0493] | failed to demonstrate effect; also recorded: lack of efficacy | failed to demonstrate the same effect | – | – | – | – |
| melanotan-II | – | – | arousal | erectogenic activity | no effect | did exert these effects |
